Test results taken from patent publication US7691842B2, “Tricyclic 6-alkylidene-penems as β-lactamase inhibitors” (Wyeth LLC, priority 2002, dated 2010).
Counter-ions that a name gives are not always drawn. Like-named read-outs stand apart in the source and are kept apart here.

Legend:
[1] = test system: Clinical isolates that have been adapted to cause infection in mice; assay: In vivo antibacterial protection (7 day survival of infected mice, ED50); parameters: species or system mice strain CD-1; settings: Mus musculus, 168 h
Excerpt: In Vivo Antibacterial Protection
Female mice strain CD-1, approximately 18-22 grams, were received from Charles River Laboratories and quarantined 7 days prior to use. In addition, mice may be rendered neutropenic using cytoxan for particular studies.
Clinical isolates that have been adapted to cause infection in mice, are used in the experiment, including infections with strains of E. coli, K. pneumoniae, M. morganii, E. cloacae, S. marcescens, C. freundii, staphylococci, streptococci, P. aeruginosa and N. gonorrhoeae.
Mice are challenged by injecting 0.5 ml intraperitoneally or 0.05 ml intranasally of a predetermined bacterial inoculum suspended in broth, saline or hog gastric mucin (supplemented with dried bovine hemoglobin for N. gonorrhoeae). […] Antibacterial doses (dose concentration prepared by two fold serial dilutions of the antibiotic) are dissolved or suspended in 0.2% aqueous agar or methocel, phosphate buffered saline or an adjuvant are administered orally, subcutaneously or intravenously in the following manner: • a) Orally or subcutaneously: Dose volume of 0.5 ml administered ½ hr after infection. A second dose may be administered 3 hr. after infection for treatment of infections with more virulent organisms. • b) Intravenously: Dose volume of 0.2 ml, administered ½ hr. after infection. For the treatment of infections with more virulent organisms, more doses, up to 48 hr may be administered. (Intravenous dosing will not exceed 3 doses/24 hr period.) • c) Oral pretreatment: Under special circumstances, the pH of the stomach needs to be adjusted in order to increase the gastric stability of the antibiotic. For this purpose, 0.5 ml of phosphate buffered saline (pH7.8, 0.06M) (or specific approved adjuvant) is administered orally ½ hr after infection, followed 5 minutes later by 0.5 ml of antibiotic (also orally) contained in phosphate buffered saline (pH7.8, 0.06M). Animal Species
A detailed explanation as to the number of animals needed for the determination of in vivo efficacy follows: • A) Novel antibiotics are tested at 5 different dose levels with 5 mice per dose level at each of three routes of administration (oral, subcutaneous and intravenous). […] This would require 25 mice/route with 3 routes/antibiotic or 75 mice per novel compound tested. One to two novel antibiotics will be tested per experiment (75-150 mice) • B) The effectiveness of the new compound must be compared to that of a standard, or antibiotic of known effectiveness. Known or previously tested antibiotics are tested at 5 dose levels with 5 mice per dose level by a single route of administration, for a total of 25 mice/antibiotic. Usually 3-6 antibiotics will be tested per experiment. (75-150 mice). • C) Untreated controls—In each of the above tests, untreated animals are infected with 3 different concentrations of bacterial inoculum with 10 mice per concentration (30 mice total in each and every test). These untreated controls are used to determine and maintain the infection level between 10-100 LD50s as required for test to test comparison and validity. Determination of Protective Effects of Antibacterial Agents:
The protective effects of the antibacterial agent(s) are measured by the survival of the infected untreated as compared to the treated animals. For this determination, animals are observed for 7 days after treatment. A census of survivors is taken twice daily and at that time dead as well as moribund animals are removed. The 7 day survival ratio from three separate tests are pooled for estimation of median effective dose (ED50) by computerized program for probit analysis (Cleeland, R. and E. Squires. 1991. Evaluation of New Antimicrobials in Vitro and in Experimental Animal Infections. In Antibiotics in Laboratory Medicine”, 3rd. ed., edited by Victor Lorian. Willams and Wilkins Baltimore, Md. pp. 752-783). […]

[2] = target: class C enzyme AmpC (Enterobacter cloacae, UniProt P05364); assay: biochemical; parameters: species or system Enterobacter cloaca
Chain of class C enzyme AmpC (P05364 21-381): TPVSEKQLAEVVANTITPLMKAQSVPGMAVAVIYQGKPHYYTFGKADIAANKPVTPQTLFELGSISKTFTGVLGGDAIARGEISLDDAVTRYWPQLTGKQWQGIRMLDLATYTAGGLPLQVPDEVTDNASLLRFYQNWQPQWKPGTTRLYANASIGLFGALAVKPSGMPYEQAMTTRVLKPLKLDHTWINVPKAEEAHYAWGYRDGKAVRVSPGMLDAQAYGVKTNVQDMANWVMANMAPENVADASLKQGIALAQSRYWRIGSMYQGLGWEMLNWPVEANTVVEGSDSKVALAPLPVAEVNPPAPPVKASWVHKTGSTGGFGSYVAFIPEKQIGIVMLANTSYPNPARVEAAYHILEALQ
Protocol: (§1) IC50 Determination for the Penem Inhibitor
(§2) β-Lactamase inhibitory activity of the penem inhibitors was determined spectrophotometrically as described by Bush et al., [Bush, K., Macalintal, C., Rasmussen, B. A., Lee, V. and Yang, Y. Antimicrobial Agents and Chemotherapy 1993, 37, 851]. Homogeneously purified class A β-lactamases TEM-1 from E. Coli and Imi-1 from Enterobacter cloacae, class B enzyme CcrA from Bacteroides fragilis and class C enzyme AmpC from Enterobacter cloaca were employed in the assay. The enzyme concentrations for TEM-1, Imi-1, CcrA and AmpC were 4.3, 7.1, 1.2 and 2.1 nM, respectively. A wide range of inhibitor concentrations were prepared in 50 mM PO4, pH 7.0 to include the possible IC50 values. The substrate used to initiate the enzyme reaction was nitrocefin at 50 μg/ml in the same buffer as the inhibitor. Initially the enzyme and inhibitor (20 μl each) were preincubated for 10 minutes at 25° C. prior to the addition of 160 μl volume of nitrocefin. Initial rates of hydrolysis were monitored for 5 minutes at 495 nm using a Molecular Devices Spectra Max 250 with kinetic protocol of SoftMax Program. Readings from the Spectra Max 250 were exported and transferred to Microsoft Excel. The percent of inhibition of each inhibitor concentration was calculated based on the control enzyme activity. The inhibitor concentration that caused a 50% reduction in the enzymatic activity (IC50) was determined graphically.

[3] = target: class A β-lactamase Imi-1 (Enterobacter cloacae, UniProt Q46991); assay: β-Lactamase inhibition, IC50 determination (nitrocefin, spectrophotometric); assay type: biochemical
Chain of class A β-lactamase Imi-1 (Q46991 entry or part of it): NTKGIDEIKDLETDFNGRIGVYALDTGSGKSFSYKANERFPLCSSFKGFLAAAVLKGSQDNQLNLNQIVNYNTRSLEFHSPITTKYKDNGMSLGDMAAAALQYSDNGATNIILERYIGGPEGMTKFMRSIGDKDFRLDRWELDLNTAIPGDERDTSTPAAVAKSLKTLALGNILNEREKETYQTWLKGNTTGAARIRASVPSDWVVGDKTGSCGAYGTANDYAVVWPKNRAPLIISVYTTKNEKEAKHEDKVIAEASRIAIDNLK
Protocol: as §1, §2

[4] = target: class B enzyme CcrA (Bacteroides fragilis, UniProt P25910); assay: as above; assay type: biochemical; settings: read-out: IC50 (nM) Class B Ccr
Chain of class B enzyme CcrA (P25910 19-249): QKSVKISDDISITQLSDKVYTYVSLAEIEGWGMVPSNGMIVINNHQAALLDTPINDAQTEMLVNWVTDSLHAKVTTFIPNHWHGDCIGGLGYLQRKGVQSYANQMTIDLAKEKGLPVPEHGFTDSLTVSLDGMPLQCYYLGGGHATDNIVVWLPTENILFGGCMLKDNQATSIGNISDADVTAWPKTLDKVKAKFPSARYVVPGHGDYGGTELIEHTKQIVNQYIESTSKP
Protocol: as §1, §2

[5] = target: class A β-lactamase TEM-1 (Escherichia coli, UniProt P62593); assay: as above; assay type: biochemical, E. Coli
Chain of class A β-lactamase TEM-1 (P62593 24-286 limits assumed): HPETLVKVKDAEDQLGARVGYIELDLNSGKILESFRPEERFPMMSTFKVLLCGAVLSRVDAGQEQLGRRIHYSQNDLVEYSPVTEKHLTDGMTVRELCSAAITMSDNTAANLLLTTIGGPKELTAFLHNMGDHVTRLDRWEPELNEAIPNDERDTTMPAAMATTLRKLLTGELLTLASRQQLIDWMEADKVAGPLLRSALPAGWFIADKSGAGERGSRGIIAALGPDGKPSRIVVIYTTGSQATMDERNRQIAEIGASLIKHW
Protocol: as §1, §2

[6] = test system: E. Coli GC2844; assay: Antimicrobial susceptibility testing, microbroth dilution MIC of piperacillin + inhibitor; assay type: cell-based; settings: piperacillin combined with constant 4 μg/ml inhibitor; Inc: 35° C. for 18 hours
Protocol: (§3) Antimicrobial susceptibility testing. The in vitro activities of the antibiotics were determined by the microbroth dilution method as recommended by the National Committee for Clinical Laboratory Standards (NCCLS). (NCCLS. 2000. Methods for Dilution Antimicrobial Susceptibility Tests for Bacteria That Grow Aerobically; Approved Standards: M7-A5, vol. 19. National Committee for Clinical Laboratory Standards, Villanova, Pa.). Mueller-Hinton it broth (MHBII)(BBL Cockeysville, Md.), was used for the testing procedure. Microtiter plates containing 50 μl per well of two-fold serial dilutions of piperacillin combined with a constant amount (4 μg/ml) of a B-lactamase inhibitor (final concentration) were inoculated with 50 μl of inoculum to yield the appropriate density (10^5 CFU/ml) in 100 μl. The plates were incubated for 18-22 hours at 35° C. in ambient air.

[7] = test system: S. Marcescens GC1781 Sme-1 + Ampc; assay: as above; assay type: cell-based; settings: piperacillin combined with constant 4 μg/ml inhibitor; Inc: 35° C. for 18 hours
Protocol: as §3

[8] = test system: S. aureus GC2216; assay: as above; assay type: cell-based; settings: piperacillin combined with constant 4 μg/ml inhibitor; Inc: 35° C. for 18 hours
Protocol: as §3

[9] = test system: E. Coli GC2894 (Ampc); assay: as above; assay type: cell-based; settings: piperacillin combined with constant 4 μg/ml inhibitor; Inc: 35° C. for 18 hours
Protocol: as §3

[10] = test system: E. Coli GC2920 (IRT-2); assay: as above; assay type: cell-based; settings: piperacillin combined with constant 4 μg/ml inhibitor; Inc: 35° C. for 18 hours
Protocol: as §3

[11] = test system: E. Coli GC2847 (TEM-1); assay: as above; assay type: cell-based; settings: piperacillin combined with constant 4 μg/ml inhibitor; Inc: 35° C. for 18 hours
Protocol: as §3

[12] = test system: P. aeruginos GC1764 (Ampc); assay: as above; assay type: cell-based; settings: piperacillin combined with constant 4 μg/ml inhibitor; Inc: 35° C. for 18 hours
Protocol: as §3

[13] = test system: E. Coli GC2203; assay: as above; assay type: cell-based; settings: piperacillin combined with constant 4 μg/ml inhibitor; Inc: 35° C. for 18 hours
Protocol: as §3

[14] = test system: E. Cloacae GC1477 (Ampc); assay: as above; assay type: cell-based; settings: piperacillin combined with constant 4 μg/ml inhibitor; Inc: 35° C. for 18 hours
Protocol: as §3

[15] = Ratio of Piperacillin Inhibitor 2:1, read-out: ED50
[16] = enzyme 1.2 nM, 10 min preincubation at 25° C., nitrocefin 50 μg/ml, 50 mM PO4, pH 7.0
[17] = enzyme 4.3 nM, 10 min preincubation at 25° C., nitrocefin 50 μg/ml, 50 mM PO4, pH 7.0, read-out: IC50 (nM) Class A TEM-1
[18] = Ratio of Piperacillin Inhibitor 4:1, read-out: ED50
[19] = enzyme 2.1 nM, 10 min preincubation at 25° C., nitrocefin 50 μg/ml, 50 mM PO4, pH 7.0, read-out: IC50 (nM) Class C AmpC
[20] = enzyme 7.1 nM, 10 min preincubation at 25° C., nitrocefin 50 μg/ml, 50 mM PO4, pH 7.0, read-out: IC50 (nM) Class A Imi

SMILES	ED50 [1, 15] [mg/kg]	IC50 [2] [nM]	IC50 [3] [nM]	IC50 [4, 16] [nM]	IC50 [5, 17] [nM]	IC50 [5] [nM]	ED50 [1, 18] [mg/kg]	also measured
O=C(O)C1=CS[C@@H]2/C(=C\c3cn4c(n3)sc3ccccc34)C(=O)N12 [Example 1, (5R,6Z)-6-(Imidazo[2,1-b][1,3]benzothiazol-2-ylmethylene)-7-oxo-4-thia-1-azabicyclo[3.2.0]hept-2-ene-2-carboxylic acid]	32 to 64	1.4	160	350	10	–	–	–
COc1ccc2c(c1)sc1nc(/C=C3/C(=O)N4C(C(=O)O)=CS[C@H]34)cn12 [Example 2]	> 64	2.4	180	250	18	–	–	–
O=C(O)C1=CS[C@@H]2/C(=C\c3cn4c(ccc5ccccc54)n3)C(=O)N12 [Example 4, (5R),(6Z)-6-Imidazo[1,2-a]quinolin-2-ylmethylene-7-oxo-4-thia-1-azabicyclo[3.2.0]hept-2-ene-2-carboxylic acid]	32 to 64	2.1	90	900	–	6	–	–
O=C(O)C1=CS[C@@H]2/C(=C\c3cn4c(n3)nc3n4CCCC3)C(=O)N12 [Example 8, (5R), (6Z)-6-(4,5,6,7-tetrahydro-1,3a,3b,8-tetraaza-cyclopenta[a]indene-2-ylmethylene)-7-oxo-4-thia-1-aza-bicyclo[3.2.0]hept-2-ene-2-carboxylic acid sodium salt]	–	1.4	15	450	–	2.4	16 to 64	–
CCOc1nc2nc(C=C3C(=O)N4C(C(=O)O)=CSC34)cn2c2c1CCC2 (stereo not shown) [Example 10, 6-(5-ethoxy-7,8-dihydro-6H-3,4,8b-triaza-as-indacen-2-ylmethylene)-7-oxo-4-thia-1-aza-bicyclo[3.2.0]hept-2-ene-2-carboxylic acid]	–	5.8	35	140	–	48	55.6	–
O=C([O-])C1=CS[C@@H]2C(=Cc3cc4n(n3)Cc3ccccc3OC4)C(=O)N12.[Na+] [Example 11, (5R,6E&Z)-7-oxo-6-(4H,10H-pyrazolo[5,1-c][1,4]-benzoxazepin-2-ylmethylene)-4-thia-1-azabicyclo[3.2.0]hept-2-ene-2-carboxylic acid, sodium salt]	–	–	–	62	1.4	–	–	IC50 [2, 19]: 3.6 nM; Minimal Inhibitory Concentration E. Coli GC2844 [6]: 1 µg/mL; Minimal Inhibitory Concentration S. Marcescens GC1781 Sme-1 + Ampc [7]: 1 µg/mL; Minimal Inhibitory Concentration S. aureus GC2216 [8]: <0.06 µg/mL; Minimal Inhibitory Concentration E. Coli GC2894 (Ampc) [9]: 4 µg/mL; Minimal Inhibitory Concentration E. Coli GC2920 (IRT-2) [10]: 1 µg/mL; Minimal Inhibitory Concentration E. Coli GC2847 (TEM-1) [11]: 8 µg/mL; Minimal Inhibitory Concentration P. aeruginos GC1764 (Ampc) [12]: 16 µg/mL; Minimal Inhibitory Concentration E. Coli GC2203 [13]: 1 µg/mL; Minimal Inhibitory Concentration E. Cloacae GC1477 (Ampc) [14]: 32 µg/mL; IC50 [3, 20]: 78 nM
O=C(O)C1=CS[C@@H]2/C(=C\c3cn4c(n3)-c3ccccc3C4)C(=O)N12 [Example 12, (5R), (6Z)-6-(5H-Imidazo[2,1-a]isoindol-2-ylmethylene)-7-oxo-4-thia-1-aza-bicyclo[3.2.0]hept-2-ene-2-carboxylic acid sodium salt]	–	28	6.4	42	–	2.6	50	–
O=C(O)C1=CS[C@@H]2/C(=C\c3cn4c(n3)sc3cc(F)ccc34)C(=O)N12 [Example 14]	–	2.4	270	–	–	8.1	–	ED50 ([1]; Ratio of Piperacillin Inhibitor not given, read-out: ED50): > 64 mg/kg; IC50 ([4]; pH 7): 370 nM
O=C(O)C1=CS[C@@H]2/C(=C\c3ccc4c(c3)sc3nccn34)C(=O)N12 [Example 16, (5R),(6Z)-6-(imidazo[2,1-b]bebzothiazol-7-ylmethylene)-7-oxo-4-thia-1-azabicyclo[3.2.0]hept-2-ene-2-carboxylic acid]	–	–	–	130	4.5	–	–	IC50 [2, 19]: 9.5 nM; Minimal Inhibitory Concentration E. Coli GC2844 [6]: 2 µg/mL; Minimal Inhibitory Concentration S. Marcescens GC1781 Sme-1 + Ampc [7]: 1 µg/mL; Minimal Inhibitory Concentration S. aureus GC2216 [8]: 0.05 µg/mL; Minimal Inhibitory Concentration E. Coli GC2894 (Ampc) [9]: 32 µg/mL; Minimal Inhibitory Concentration E. Coli GC2920 (IRT-2) [10]: 2 µg/mL; Minimal Inhibitory Concentration E. Coli GC2847 (TEM-1) [11]: 64 µg/mL; Minimal Inhibitory Concentration P. aeruginos GC1764 (Ampc) [12]: 32 µg/mL; Minimal Inhibitory Concentration E. Coli GC2203 [13]: 4 µg/mL; Minimal Inhibitory Concentration E. Cloacae GC1477 (Ampc) [14]: >64 µg/mL; IC50 [3, 20]: 70 nM
